The numbers were not newly measured in patent US20100143341A1, “THIENOPYRIMIDINES FOR PHARMACEUTICAL COMPOSITIONS” (DEVELOGEN AKTIENGESELLSCHAFT, priority 2005, published 2010), which cites them from elsewhere.

The target of one data set is human Mnk2 protein (Homo sapiens, UniProt Q9HBH9). The settings on record: described in WO 02/103361.
A further data set concerns phosphorylated eIF4E. The settings on record: cell culture cells transfected with Mnk2 (Mnk2a or Mnk2b) or Mnk1.

Chain of human Mnk2 protein (Q9HBH9 whole entry): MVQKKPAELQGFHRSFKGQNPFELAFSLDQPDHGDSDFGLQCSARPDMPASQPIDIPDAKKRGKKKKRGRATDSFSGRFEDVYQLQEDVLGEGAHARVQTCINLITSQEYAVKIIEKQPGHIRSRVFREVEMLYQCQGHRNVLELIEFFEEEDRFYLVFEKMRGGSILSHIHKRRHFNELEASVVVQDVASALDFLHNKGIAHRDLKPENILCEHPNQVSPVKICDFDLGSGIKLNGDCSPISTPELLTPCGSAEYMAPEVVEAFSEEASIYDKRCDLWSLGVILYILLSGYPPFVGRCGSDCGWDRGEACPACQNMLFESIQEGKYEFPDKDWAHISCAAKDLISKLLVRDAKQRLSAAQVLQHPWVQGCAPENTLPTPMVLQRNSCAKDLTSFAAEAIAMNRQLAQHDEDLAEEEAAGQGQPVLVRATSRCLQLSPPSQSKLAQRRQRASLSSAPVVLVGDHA

Turning to `COC(=O)c1ccc(O)cc1` [4-hydroxybenzoic acid methyl ester], the “binds the human Mnk2 protein” value on human Mnk2 protein is recorded as “binds”.

As to `Nc1ncnc2n[nH]c(Nc3ccc(F)cc3)c12` [CGP57380], the “reduction of phosphorylated eIF4E” value with phosphorylated eIF4E is reported as “strong reduction”.
